The values below are quoted from earlier work in patent US12268783B2, “Platform drug delivery system utilizing crystal engineering and theanine dissolution” (THEAPRIN PHARMACEUTICALS, INC., priority 2015, dated 2025).

The subject of this data set is Chironex fleckeri venom. The note with it: mice following venom injection.

As for zinc gluconate, the survival time result is on record as “prolonged survival time”.
